Drawing on US7906655B2, “Hepatitis C virus inhibitors” (Bristol-Myers Squibb Company, priority 2008, dated 2011), this text covers EC50 for 21 compounds.

By EC50 is commonly meant the concentration giving half of the maximal effect.

Where only a bound is given, the exact number is not on record here.

The first assay concerns HCV 1b genotype. Nature of the assay: HCV Replicon assay (HCV-neo replicon cells, wild-type). To be noted: HCV 1b genotype replicon; class symbols. It is filed as cell-based. On the procedure: An HCV Replicon assay was utilized in the present disclosure, and was prepared, conducted and validated as described in commonly owned PCT/US2006/022197 and in O'Boyle et. al. Antimicrob Agents Chemother. 2005 April; 49 (4):1346-53. Assay methods incorporating luciferase reporters have also been used as described (Apath.com).
HCV-neo replicon cells and replicon cells containing mutations in the NS5A region were used to test the currently described family of compounds. The compounds were determined to have more than 10-fold less inhibitory activity on cells containing mutations than wild-type cells. Thus, the compounds of the present disclosure can be effective in inhibiting the function of the HCV NS5A protein and are understood to be as effective in combinations as previously described in application PCT/US2006/022197 and commonly owned WO/O4014852. Further, the compounds of the present disclosure can be effective against the HCV 1b genotype. It should also be understood that the compounds of the present disclosure can inhibit multiple genotypes of HCV. […] In one embodiment, compounds of the present disclosure are inhibitory versus 1a, 1b, 2a, 2b, 3a, 4a, and 5a genotypes.
For orientation: A replicon is a self-replicating genome or part of one, used to study replication in cells.
In the case of `CN(C)[C@@H](C(=O)N1CCC[C@H]1c1nc2cc(-c3cnc(-c4cccc5[nH]c([C@@H]6C[C@@H]7C[C@@H]7N6C(=O)[C@@H](c6ccccc6)N(C)C)nc45)o3)ccc2[nH]1)c1ccccc1` (single isomer, unassigned) [Example J25.a], the EC50 lay in the range of 4.57 to 99 nM.

As for `COC(=O)N[C@@H](C(=O)N1C2C[C@@H]2C[C@H]1c1nc2cc(-c3ccc(-c4ccc5[nH]c([C@@H]6C[C@H]7CC7N6C(=O)[C@H](NC(=O)OC)c6ccccc6)nc5c4)cc3)ccc2[nH]1)c1ccccc1` (single isomer, unassigned) [Example M46.2], the concentration for a half-maximal effect (EC50) was less than 4.57 nM.

Staying with this assay, now noted: Hepatitis C virus, HCV 1b genotype replicon; class symbols.
In the case of `COC(=O)N[C@@H](C(=O)N1CCC[C@H]1c1nc2c(-c3ncc(-c4ccc5[nH]c([C@@H]6CCCN6C(=O)[C@H](NC(C)=O)c6ccccc6)nc5c4)o3)cccc2[nH]1)c1ccccc1` (mixture of isomers) [Example J6.1, methyl ((1R)-2-((2S)-2-(4-(5-(2-((2S)-1-(acetamido (phenyl)acetyl)-2-pyrrolidinyl)-1H-benzimidazol-5-yl)-1,3-oxazol-2-yl)-1H-benzimidazol-2-yl)-1-pyrrolidinyl)-2-oxo-1-phenylethyl) carbamate], the EC50 was less than 4.57 nM.

Turning to `CC(=O)NC(C(=O)N1CCC[C@H]1c1nc2cc(-c3cnc(-c4cccc5[nH]c([C@@H]6CCCN6C(=O)C(NC(C)=O)c6ccccc6)nc45)o3)ccc2[nH]1)c1ccccc1` (mixture of isomers) [Example J12.1, N-((1R)-2-((2S)-2-(4-(5-(2-((2S)-1-((2R)-2-acetamido-2-phenylacetyl)-2-pyrrolidinyl)-1H-benzimidazol-5-yl)-1,3-oxazol-2-yl)-1H-benzimidazol-2-yl)-1-pyrrolidinyl)-2-oxo-1-phenylethyl) acetamide], the concentration giving a half-maximal response (EC50) lay within 4.57 to 99 nM.

On to `CN(C)[C@@H](C(=O)N1CCC[C@H]1c1nc2cc(-c3cnc(-c4cccc5[nH]c([C@@H]6C[C@@H]7C[C@@H]7N6C(=O)[C@@H](c6ccccc6)N(C)C)nc45)o3)ccc2[nH]1)c1ccccc1` (single isomer, unassigned) [Example J25], for which the EC50 was less than 4.57 nM.

On to `COC(=O)N[C@@H](C(=O)N1C2C[C@@H]2C[C@H]1c1nc2cc(-c3ccc(-c4ccc5[nH]c([C@@H]6C[C@H]7CC7N6C(=O)[C@H](NC(=O)OC)c6ccccc6)nc5c4)cc3)ccc2[nH]1)c1ccccc1` (single isomer, unassigned) [Example M46.1], for which the EC50 was less than 4.57 nM.

For `CC(=O)N1CCN(C(=O)OCc2ccccc2)[C@H](c2nc3cc(CCc4ccc5[nH]c([C@@H]6CN(C(C)=O)CCN6C(=O)OCc6ccccc6)nc5c4)ccc3[nH]2)C1` (stereo in doubt) [OL11, benzyl 4-acetyl-2-(5-(2-(2-(4-acetyl-1-((benzyloxy)carbonyl)-2-piperazinyl)-1H-benzimidazol-6-yl)ethyl)-1H-benzimidazol-2-yl)-1-piperazinecarboxylate], the EC50 was in the range of 100 to 999 nM.

Consider `CN(C)C(C(=O)N1CCC[C@H]1c1nc2ccc(-c3ccc4[nH]c([C@@H]5CCCN5C(=O)[C@@H](c5ccccc5)N(C)C)nc4c3)cc2[nH]1)c1ccccc1` (stereo partly drawn) [Example F1, (1R,1′R)-2,2′-(1H,1′H-5,5′-bibenzimidazole-2,2′-diyldi(2S)-2,1-pyrrolidinediyl)bis(N,N-dimethyl-2-oxo-1-phenylethanamine)], for which the EC50 is less than 4.57 nM.

Take `COC(=O)N[C@@H](C(=O)N1CCC[C@H]1c1nc2cc(-c3ccc4nc([C@@H]5CCCN5C(=O)[C@H](NC(=O)OC)c5ccccc5)[nH]c4c3)ccc2[nH]1)c1ccccc1` [Example F2, dimethyl(1H,1′H-5,5′-bibenzimidazole-2,2′-diylbis((2S)-2,1-pyrrolidinediyl((1R)-2-oxo-1-phenyl-2,1-ethanediyl)))biscarbamate]: the EC50 was less than 4.57 nM.

`O=C(Cc1ccccc1)N1CCCC[C@H]1c1nc2ccc(CCc3ccc4nc([C@@H]5CCCCN5C(=O)Cc5ccccc5)[nH]c4c3)cc2[nH]1` [Example F3, 5,5′-(1,2-ethanediyl)bis(2-((2S)-1-(phenylacetyl)-2-piperidinyl)-1H-benzimidazole)]: the EC50 fell in the range of 100 to 999 nM.

For the compound `CO[C@@H]1C[C@@H](c2nc3cc(CCc4ccc5nc([C@@H]6C[C@@H](OC)CN6C(=O)OCc6ccccc6)[nH]c5c4)ccc3[nH]2)N(C(=O)OCc2ccccc2)C1` [Example F4, benzyl (2S,4R)-2-(5-(2-(2-((2S,4R)-1-((benzyloxy)carbonyl)-4-methoxy-2-pyrrolidinyl)-1H-benzimidazol-6-yl)ethyl)-1H-benzimidazol-2-yl)-4-methoxy-1-pyrrolidinecarboxylate], the EC50 is less than 4.57 nM.

As to `CCO[C@@H]1C[C@@H](c2nc3cc(CCc4ccc5nc([C@@H]6C[C@@H](OCC)CN6C(=O)OCc6ccccc6)[nH]c5c4)ccc3[nH]2)N(C(=O)OCc2ccccc2)C1` [Example F5, benzyl (2S,4R)-2-(5-(2-(2-((2S,4R)-1-((benzyloxy)carbonyl)-4-ethoxy-2-pyrrolidinyl)-1H-benzimidazol-6-yl)ethyl)-1H-benzimidazol-2-yl)-4-ethoxy-1-pyrrolidinecarboxylate], the EC50 lay in the range of 4.57 to 99 nM.

Regarding `CC(=O)N[C@@H](C(=O)N1CCC[C@H]1c1nc2cc(-c3ccc4nc([C@@H]5CCCN5C(=O)[C@H](NC(C)=O)c5ccccc5)[nH]c4c3)ccc2[nH]1)c1ccccc1` [Example F7, N,N′-(1H,1′H-5,5′-bibenzimidazole-2,2′-diylbis((2S)-2,1-pyrrolidinediyl((1R)-2-oxo-1-phenyl-2,1-ethanediyl)))diacetamide], the EC50 fell in the range of 4.57 to 99 nM.

For the compound `CO[C@@H]1C[C@@H](c2nc3cc(C#Cc4ccc5nc([C@@H]6C[C@@H](OC)CN6C(=O)OCc6ccccc6)[nH]c5c4)ccc3[nH]2)N(C(=O)OCc2ccccc2)C1` [Example F8, benzyl (2S,4R)-2-(5-((2-((2S,4R)-1-((benzyloxy)carbonyl)-4-methoxy-2-pyrrolidinyl)-1H-benzimidazol-6-yl)ethynyl)-1H-benzimidazol-2-yl)-4-methoxy-1-pyrrolidinecarboxylate], the EC50 was less than 4.57 nM.

Turning to `CC(C)(C)O[C@@H]1C[C@@H](c2nc3cc(C#Cc4ccc5nc([C@@H]6C[C@@H](OC(C)(C)C)CN6C(=O)OCc6ccccc6)[nH]c5c4)ccc3[nH]2)N(C(=O)OCc2ccccc2)C1` [Example F10, benzyl (2S,4R)-2-(5-((2-((2S,4R)-1-((benzyloxy)carbonyl)-4-tert-butoxy-2-pyrrolidinyl)-1H-benzimidazol-6-yl)ethynyl)-1H-benzimidazol-2-yl)-4-tert-butoxy-1-pyrrolidinecarboxylate], the EC50 was 4.57 to 99 nM.

With `O=C(OCc1ccccc1)N1C[C@H](O)C[C@H]1c1nc2cc(C#Cc3ccc4[nH]c([C@@H]5C[C@@H](O)CN5C(=O)OCc5ccccc5)nc4c3)ccc2[nH]1` [Example F11], the EC50 is less than 4.57 nM.

For the compound `COC(=O)N[C@@H](C(=O)N1CCC[C@H]1c1nc2cc(-c3cnc(-c4cccc5[nH]c([C@@H]6CCCN6C(=O)[C@H](NC(=O)OC)c6ccccc6)nc45)o3)ccc2[nH]1)c1ccccc1` [Example J6, Methyl((1R)-2-((2S)-2-(4-(5-(2-((2S)-1-((2R)-2-((methoxycarbonyl)amino)-2-phenylacetyl)-2-pyrrolidinyl)-1H-benzimidazol-5-yl)-1,3-oxazol-2-yl)-1H-benzimidazol-2-yl)-1-pyrrolidinyl)-2-oxo-1-phenylethyl)carbamate], the EC50 is less than 4.57 nM.

With `O=C(Cc1ccccc1)N1CCC[C@H]1c1nc2cc(-c3cnc(-c4cccc5[nH]c([C@@H]6CCCN6C(=O)Cc6ccccc6)nc45)o3)ccc2[nH]1` [Example J7, 2-((2S)-1-(phenylacetyl)-2-pyrrolidinyl)-4-(5-(2-((2S)-1-(phenylacetyl)-2-pyrrolidinyl)-1H-benzimidazol-5-yl)-1,3-oxazol-2-yl)-1H-benzimidazole], the EC50 was 4.57 to 99 nM.

As for `COC(=O)N[C@@H](C)C(=O)N1CCC[C@H]1c1nc2cc(-c3cnc(-c4cccc5[nH]c([C@@H]6CCCN6C(=O)[C@H](C)NC(=O)OC)nc45)o3)ccc2[nH]1` [Example J8, methyl ((1S)-2-((2S)-2-(5-(2-(2-((2S)-1-(N-(methoxy-carbonyl)-L-alanyl)-2-pyrrolidinyl)-1H-benzimidazol-4-yl)-1,3-oxazol-5-yl)-1H-benzimidazol-2-yl)-1-pyrrolidinyl)-1-methyl-2-oxoethyl) carbamate], the EC50 was less than 4.57 nM.

Staying with this assay, now noted: Hepatitis C virus, HCV 1b genotype replicon; numeric values.
Take `CCCO[C@@H]1C[C@@H](c2nc3cc(CCc4ccc5nc([C@@H]6C[C@@H](OCCC)CN6C(=O)OCc6ccccc6)[nH]c5c4)ccc3[nH]2)N(C(=O)OCc2ccccc2)C1` [Example F6, benzyl (2S,4R)-2-(5-(2-(2-((2S,4R)-1-((benzyloxy)carbonyl)-4-propoxy-2-pyrrolidinyl)-1H-benzimidazol-6-yl)ethyl)-1H-benzimidazol-2-yl)-4-propoxy-1-pyrrolidinecarboxylate]: the 50% effective concentration (EC50) amounted to 480 nM.

Regarding `CCO[C@@H]1C[C@@H](c2nc3cc(C#Cc4ccc5nc([C@@H]6C[C@@H](OCC)CN6C(=O)OCc6ccccc6)[nH]c5c4)ccc3[nH]2)N(C(=O)OCc2ccccc2)C1` [Example F9, benzyl (2S,4R)-2-(5-((2-((2S,4R)-1-((benzyloxy)carbonyl)-4-ethoxy-2-pyrrolidinyl)-1H-benzimidazol-6-yl)ethynyl)-1H-benzimidazol-2-yl)-4-ethoxy-1-pyrrolidinecarboxylate], the EC50 came out at 20 nM.
